Data on 14 compounds can be found in publication PMC11156899, “High-throughput screening unveils nitazoxanide as a potent PRRSV inhibitor by targeting NMRAL1” (Nature Communications, 2024).

Several values for one entry are separate records, joined by “and”; a condition that tells them apart may be missing. Equal entries are not always repeated. Where two headings read alike, the source gives them in different places.

Data set [1] has as its system Porcine alveolar macrophages (PAM). Nature of the data set: Cytotoxicity assay (CC50) in PAM cells. As to the method:
(§1) A concentration-gradient screening strategy was employed for 141 compounds using indirect immunofluorescence assay (IFA). […] Data are mean ± SEM.
(§2) Cells were seeded in 96-well plates and grown in DMEM supplemented with 10% FBS. Upon reaching confluence, compounds were diluted to varying concentrations in 2% FBS-containing medium. Control wells contained DMEM with 0.5% DMSO. Treated cells were incubated at 37 °C in a 5% CO2 humidified environment for 48 or 72 h, followed by cytotoxicity assessment as outlined in our previous work[21]. […]

For the next data set, the system named is PRRSV (GSWW-18 strain). Nature of the data set: Anti-PRRSV dose-response (EC50, IFA) in PAM cells. Type of data set: cell-based, Porcine Reproductive and Respiratory Syndrome Virus. The following applies: Porcine reproductive and respiratory syndrome virus.
In data set [2] the test system is PRRSV GSWW-18 strain in Marc-145 cells. The following applies: reason for exclusion before third round. As to the method:
Subsequently, a second-round screening of the selected 141 compounds was conducted on Marc-145 cells using immunofluorescence assay (IFA) at four different dosage levels (Fig. 2a; Supplementary Fig. 2).
as §1
(1 picture or pasted object on this page, not shown here)

Data set [3] can be described thus: Cytotoxicity assay (CC50) in PAM cells. The following applies: pig, porcine alveolar macrophages (PAM cells). As to the method:
as §1, §2

A further data set deals with PRRSV GSWW-18 strain. Nature of the data set: In vivo antiviral effect in swine infected with GSWW-18 strain. Details: species or system pig.
Data set [4] is described as follows: Pharmacokinetics and tissue distribution of TIZ in swine after oral NTZ. Type of data set: in vivo, pig. How it is done: Fig. 4 NTZ inhibition of PRRSV shedding and transmission. a Viral load in blood, and shedding in oronasal and anal swabs. Viral load or shedding in blood and oronasal swabs were quantified from 2 to 4 dpi, and in anal swabs from 2 to 5 dpi. Viral copy numbers for each pig during this period are presented. b NTZ suppression of PRRSV proliferation in blood. 48 h post infection (infected with 1 × 10^5.5 TCID50 of GSWW-18 strain), pigs were orally administered NTZ at 10 mg/kg or 5 mg/kg at 0 h and 12 h, followed by blood collection via anterior vena cava or ear marginal vein. […] Parameters were calculated using a non-compartmental analysis (NCA). Eighteen pigs were evenly divided into three dosage groups (n = 6), each housed separately, fasted for 12 h before the experiment, and monitored by professional veterinarians for welfare and enclosure cleaning to prevent coprophagia. g Tissue distribution of NTZ’s main metabolite TIZ. Tissues were collected as per Method Pharmacokinetics and Tissue Distribution of NTZ, quantifying TIZ content at various times (n = 2). […] Symbols represent three or six independent biological replicates (a, b, f) Scatter plots (a, f) show mean ± SD values of samples, with P-values as indicated, calculated via two-way ANOVA with Dunnett’s multiple-comparison test (a), P-values < 0.0332 were considered significant. […]

The test system of another data set is NSP12. Nature of the data set: Surface plasmon resonance, NSP12 purified in vitro. Type of data set: binding, PRRSV GSWW-18 strain. The text has this:
Supplementary Fig. 10: The Affinity of Nsp1α and Nsp12 with TIZ is Lower Than That of NMRAL1.
(a) The KD value of NMRAL1 obtained through the Affinity fit model.
(b) The KD value of Nsp1α determined using the Kinetics fit model.
(c) The KD value of Nsp1α obtained through the Affinity fit model.
'FT' is the flow-through after passing through the Ni column. 'Ni-200' and 'Ni-500' represent different purification conditions with varying concentrations. 'L2' is the total cell lysate after changing the expression conditions. 'S2' is the supernatant after cell lysis with changed expression conditions. The portions highlighted in red boxes indicate the target protein. […]
constant (KD) between Nsp1α and TIZ is lower than that of NMRAL1. We observe that […]
attempting different systems (Fig. R5 e-h). Although SPR confirms the interaction […]
possibly be attributed to the abnormal protein conformation of NSP12 purified by IBs.
The existing data also indicate that the early addition of NTZ produces a more pronounced antiviral effect (Extended Data Fig. 9), and the overexpression of NMRAL1 can almost negate the antiviral action of NTZ. This leads us to speculate that NMRAL1 may be one of the primary targets of NTZ's mechanism of action, while Nsp1α and NSP12 may serve as secondary targets.
Fig.R5 Validation of the binding between Nsp1α and Nsp12 with TIZ through SPR,
(In SPR one partner is held on a chip, and binding of the other changes the refractive index at the surface.)

A further data set deals with NMRAL1 (Chlorocebus sabaeus, UniProt A0A0D9R9W0). Nature of the data set: Surface plasmon resonance, immobilized NMRAL1. Type of data set: binding. The following applies: SPR. As to the method: For SPR, the Biacore T200 system (Cytiva) was used to assess binding affinity and kinetics. The Series S Sensor Chip CM5 (BR100530, Cytiva) immobilized 13,000 resonance units (RU) of NMRAL1 (50 μg/ml, pH 4.0, 10 μl/min, 25°C). TIZ (10 to 0.3125 μM) dissolved in a 5% DMSO running buffer (1.05 × HBS-EP+, Cytiva) was applied, with a solvent correction fluid gradient of 4.5–5.8% DMSO. Contact time was set to 120 s for binding and 300 s for dissociation. Post-experiment, data were analyzed using Biacore T200 Evaluation Software 3.0 with Affinity Fit 1:1 Binding model.

The mark [5] stands for this setting: third round of screening, PAM cells.
Setting [6] is: PAM cells, mean ± SEM, n = 2, unit only on axis title, read-out: EC50.

Chain of NMRAL1 (A0A0D9R9W0 entry or part of it): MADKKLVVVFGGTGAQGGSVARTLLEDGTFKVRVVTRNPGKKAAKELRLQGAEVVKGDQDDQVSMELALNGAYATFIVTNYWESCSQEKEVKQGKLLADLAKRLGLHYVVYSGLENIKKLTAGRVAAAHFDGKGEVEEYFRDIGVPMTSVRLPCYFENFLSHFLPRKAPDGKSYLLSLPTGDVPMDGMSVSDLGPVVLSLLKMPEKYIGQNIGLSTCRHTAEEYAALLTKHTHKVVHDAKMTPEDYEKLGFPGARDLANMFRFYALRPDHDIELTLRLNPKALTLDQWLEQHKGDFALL

Consider `CC(=O)c1ccc2c(c1)N(CCCN1CCN(CCO)CC1)c1ccccc1S2` [Acetophenazine], for which the “cytotoxicity (in words)” value in data set [1] (setting [5]) is given as “low cytotoxicity”. Further, the EC50 – broadly, the concentration that produces a half-maximal response – in the data set on PRRSV (GSWW-18 strain) amounted to 0.718 ± 0.224 µM.
As to `CN(C)CCCOc1nn(Cc2ccccc2)c2ccccc12` [Benzydamine], the “cytotoxicity (in words)” value in data set [1] is “low cytotoxicity”. Besides, the EC50 with PRRSV (GSWW-18 strain) (setting [6]) was 2.01 ± 0.469 µM.
For the compound `CCN(CC)CCCC(C)Nc1ccnc2cc(Cl)ccc12` (stereo not shown) [Chloroquine], the “cytotoxicity (in words)” value in data set [1] (setting [5]) is reported as “low cytotoxicity”. Further, in the data set with PRRSV (GSWW-18 strain) (setting [6]), the EC50 came out at 1.53 ± 0.475 µM.
Turning to `C[C@H]1O[C@@H](O[C@H]2CC[C@@]3(C)[C@H](CC[C@@H]4[C@@H]3C[C@@H](O)[C@]3(C)[C@@H](C5=CC(=O)OC5)CC[C@]43O)C2)C[C@H](O)[C@@H]1O[C@H]1C[C@H](O)[C@H](O[C@H]2C[C@H](O)[C@H](O[C@@H]3O[C@H](CO)[C@@H](O)[C@H](O)[C@H]3O)[C@@H](C)O2)[C@@H](C)O1` [Deslanoside], the “cytotoxicity (in words)” value in data set [2] is “high cytotoxicity”.
With `Nc1ccn([C@@H]2O[C@H](CO)[C@@H](O)C2(F)F)c(=O)n1` [Gemcitabine], in the data set on PRRSV (GSWW-18 strain) (setting [6]), the EC50 amounted to 0.109 ± 0.029 µM.
Consider `CCN(CCO)CCCC(C)Nc1ccnc2cc(Cl)ccc12` (stereo not shown) [Hydroxychloroquine], for which the “cytotoxicity (in words)” value in data set [1] is “low cytotoxicity”. In the data set with PRRSV (GSWW-18 strain) (setting [6]), the EC50 is 1.09 ± 0.187 µM.
For the compound `CS(=O)(=O)CCNCc1ccc(-c2ccc3ncnc(Nc4ccc(OCc5cccc(F)c5)c(Cl)c4)c3c2)o1` [Lapatinib], in data set [3], half-maximal cytotoxicity (CC50) was put at 9.51 ± 0.243 µM. The half-maximal effective concentration (EC50) in the data set with PRRSV (GSWW-18 strain) (setting [6]) worked out at 1.77 ± 0.535 µM.
`CN(Cc1cnc2nc(N)nc(N)c2n1)c1ccc(C(=O)N[C@@H](CCC(=O)O)C(=O)O)cc1` [Methotrexate]: half-maximal cytotoxicity in data set [3] (CC50) was put at 6.83 ± 2.25 µM. Moreover, the EC50 with PRRSV (GSWW-18 strain) (setting [6]) was found to be 0.307 ± 0.316 µM.
Regarding `COc1c(C)c2c(c(O)c1C/C=C(\C)CCC(=O)O)C(=O)OC2` [Mycophenolic acid], the EC50 with PRRSV (GSWW-18 strain) (setting [6]) was 0.305 ± 0.067 µM.
Turning to `CN1CCC(=C2c3ccccc3CCc3sccc32)CC1` [Pizotifen], the “cytotoxicity (in words)” value in data set [1] is recorded as “low cytotoxicity”. In the data set with PRRSV (GSWW-18 strain) (setting [6]), the EC50 was 0.541 ± 0.14 µM.
Turning to `NC(=O)c1ncn([C@@H]2O[C@H](CO)[C@@H](O)[C@H]2O)n1` [RBV, Ribavirin], the “viral load and shedding, setting of efficacy” value in the data set with PRRSV GSWW-18 strain (blood, oronasal and anal swabs) is recorded as “effective only in the prophylactic setting”. Besides, in the data set with PRRSV GSWW-18 strain (positive control group), the “efficacy against PRRSV in swine” value is reported as “appeared to lack efficacy”.
As for `CCC(CC)COC(=O)[C@H](C)N[P@](=O)(OC[C@H]1O[C@@](C#N)(c2ccc3c(N)ncnn23)[C@H](O)[C@@H]1O)Oc1ccccc1` [Remdesivir], the “cytotoxicity (in words)” value in data set [1] is recorded as “low cytotoxicity”. In the data set on PRRSV (GSWW-18 strain) (setting [6]), the EC50 is 4.99 ± 2.37 µM.
As to `O=C(Nc1ncc([N+](=O)[O-])s1)c1ccccc1O` [TIZ, Tizoxanide], the tissue distribution entry in data set [4] (pig tissues after oral NTZ, n = 2) was “primarily distributed in small and large intestines, MesLNs, ILNs, but not in high concentrations in lungs”. Also, the Tmax (as a rule, the time at which the peak concentration occurs) in data set [4] (pig, in vivo, po, 25 mg/kg) is 2.167 h. Also, the “interaction with NSP12 (SPR)” value in the data set with NSP12 was “weak interaction”. The “affinity compared between proteins” value on NMRAL1 (NMRAL1 vs NSP1α and NSP12) was “higher than that of NSP1α and NSP12”. Moreover, the Kd (as a rule, the equilibrium constant for the complex coming apart) on NMRAL1 (legend of Fig. 6o, Supplementary Fig. 10a (Affinity fit model)) is 4.5 µM; on NMRAL1 (value printed in Fig. 6o with ka and kd), ~2.87 µM and 2.87 µM. Further, at NMRAL1 (read-out: ka), the kon came to 2380 M⁻¹ s⁻¹. For the same compound, the koff on NMRAL1 (read-out: kd) amounted to 0.00683 s⁻¹.
Turning to `CN(C/C=C/C#CC(C)(C)C)Cc1cccc2ccccc12` [Terbinafine], the “cytotoxicity (in words)” value in data set [1] was “low cytotoxicity”. In addition, the EC50 in the data set with PRRSV (GSWW-18 strain) (setting [6]) was determined as 1.22 ± 0.328 µM.
